# Legend:
# Rac1 and Cdc42 = assay: Rac1 and Cdc42-GTP pull-down assays; type: cell-based, human; details: serum-starved A549 cells stimulated with EGF or FBS; Gamitrinib 5 μM
# Description: The activation of Rho family small GTPases, Rac1 or Cdc42 was examined in pull-down assays using the p21-binding domain (PBD, amino acids 70-117) of the p21-activated kinase-1 (Pak1). Briefly, a pGEX TK-Pak1 PBD cDNA (Addgene, Cat. no. #12217) was purified, transformed into BL21 E. coli competent cells (Stratagene), and expressed as recombinant GST fusion protein after induction with 1 mM IPTG for 4 h at 34° C. Cells were suspended in PBS, pH 7.2, in the presence of protease inhibitors (SIGMA), and broken by sonication in 1% Triton X-100 for 30 min at 4° C. Soluble proteins were isolated by chromatography on glutathione Sepharose 4B (GS4B, GE Healthcare), eluted in 3 consecutive steps in buffer containing 10 mM GSH, 50 mM Tris HCl, pH 8.0, and further desalted using Amicon Ultra 4/10K columns (Millipore), for a total of 3 buffer changes to PBS, pH 7.2. The protein was diluted in glycerol, quantified by absorbance at 280 nm, and stored at −80° C. until use. The activity of each batch of recombinant protein was assessed by incubating aliquots of the cell lysate with non-hydrolyzable GTPγS at 0.1 mM (maximum binding) or 1 mM GDP (negative control) in low Mg2+ buffer at 30° C. followed by pull-down (54). […]
# tumor cells [1] = assay: F-actin staining (rhodamine-phalloidin), confocal microscopy; type: cell-based, human; details: Gamitrinib 5 μM; fluorescence microscopy
# Description: Tumor cells growing at low confluency (1-2×10^4/well) on optical grade glass coverslips were treated with vehicle or Gamitrinib (5 μM), fixed in 4% formaldehyde for 15 min at 37° C., washed in PBS, pH 7.4, and permeabilized with 0.1% Triton X-100 for 5 min at 22° C. Slides were washed in PBS, pH 7.4, blocked in 1% BSA/PBS for 30 min, incubated with 1:2000 dilution of phalloidin-rhodamine (Molecular Probes) for 30 min, washed in PBS, pH 7.4, and mounted in Fluoromount G medium (Southern Biotech). Slides were analyzed on a Leica TCS SP2 confocal laser microscope with a 100× oil objective.
# LN229 spheroids [2] = assay: Tumor cell invasion in 3D organotypic spheroids embedded in collagen; type: cell-based, human; details: LN229 spheroids in collagen matrix; Gamitrinib 1.25-2.5 μM; 72 h
# Description: (§1) For cell migration experiments using a wound closure assay, confluent monolayers of MRC-5 cells were incubated with vehicle or Gamitrinib (5-10 μM), and wounded using a 10 μl pipette tip. Three micrographs/well were obtained at time=0, 16 and 24 h after wounding, and the percentage of wound closure was normalized to the maximum initial area for each well. For analysis of tumor cell invasion in 3D organotypic spheroids, tumor cells (5×10^4) were seeded onto 96-well plates coated with 1.5% agar (Difco Noble Agar) in PBS, pH 7.4. Spheroids were allowed to form over a 72 h period and then embedded in […] of bovine collagen type I (Organogenesis) in 24-well plates. Spheroids were overlaid with 1 ml of growth medium, treated with various concentrations of Gamitrinib for 72 h, and analyzed for changes in maximum invasion distance and invasion area. Quantification of live vs. dead cells under the various conditions tested was performed by staining the spheroids with calcein-AM (live, bright cluster) and Topro-3 (dead, dark spots) (Invitrogen) for 2 h. Samples were imaged using a Prairie Ultima II 2-photon microscope (Prairie Technologies, Inc, Middleton, Wis.), and stacks of 100 slices were generated in 2 channels. 3-D reconstruction of the labeled spheroids and analysis of cell staining was carried out using ImagePro Plus 3D software (Media Cybernetics, Silver Spring Md.).
# AMPK = assay: Western blotting, AMPK and ACC phosphorylation; type: cell-based, human
# Description: Protein lysates were prepared in RIPA buffer containing 150 mM NaCl, 1.0% Triton X-100, 0.5% sodium deoxycholate, 0.1% SDS, 50 mM Tris, pH 8.0, in the presence of EDTA-free protease inhibitor cocktail (Roche) and phosphatase inhibitor cocktail 2 and 3 (Sigma Aldrich). Equal amounts of protein lysates were separated by SDS gel electrophoresis, transferred to PVDF membranes and incubated with primary antibodies of various specificities. Protein bands were detected by chemiluminescence, as described (21).
# PC3 cells = assay: Cell death by Trypan blue exclusion; type: cell-based; details: vs vehicle, Gamitrinib 5 μM, CCCP 12.5 μM, 2-DG 25 mM
# Description: Tumor cells were plated onto 96-well plates at 3.7×10^3/well and treated with vehicle or Gamitrinib (5 μM). After 24 h, cell viability was assessed with a 3 (4,5-dimethyl-thyazoyl-2-yl)2,5 diphenyltetrazolium bromide (MTT) colorimetric assay (24), or, alternatively, by Trypan blue exclusion and light microscopy. Data were background-subtracted relative to vehicle-treated cultures. In some experiments, tumor cell proliferation was assessed by direct cell counting and light microscopy.
# tumor cells [3] = details: previous data (23); cited from earlier work
# LN229 spheroids [4] = assay: Spheroid live/dead staining (calcein-AM/Topro-3), 2-photon microscopy; type: cell-based, human
# Description: as §1
substance,measurement,setting,value
Gamitrinib,activation of Rac1 and Cdc42 (GTP-bound),Rac1 and Cdc42,impaired
same,actin cytoskeletal assembly,tumor cells [1],suppressed actin cytoskeletal assembly
same,invasive length and invasive areas,LN229 spheroids [2],nearly complete suppression
same,tumor cell invasion in organotypic spheroids,LN229 spheroids [2],blocked tumor cell invasion
same,AMPK phosphorylation during nutrient deprivation,"AMPK; LN229, Gamitrinib 5 μM, with or without glucose",increased AMPK phosphorylation
same,AMPK and ACC phosphorylation,"AMPK; PC3, Gamitrinib 5 μM time course, metformin 5 mM 6 h, 17-AAG 5 μM time course",induced early phosphorylation
same,cell death by Trypan blue exclusion,PC3 cells,did not affect
same,O2 consumption in tumor cells,tumor cells [3],inhibited O2 consumption
same,overall cell viability in a 3-D microenvironment,LN229 spheroids [4],not affected
